“And” between values parts separate entries of the source, which are not always exact repeats. Identical values can stand only once. Like-named read-outs stand apart in the source and are kept apart here.
Experiments:
[1] = test system: esterases in rabbit cornea, iris–ciliary body and aqueous humor; set-up: method as in PMID 16223870; details: 1000 μM; cited from earlier work
[2] = test system: CES2 (rabbit ocular tissue homogenates); details: for FDA hydrolysis rate: 100 μM FDA
[3] = test system: CES2 (pig ocular tissue homogenates); details: for FDA hydrolysis rate: 100 μM FDA
multiple esterases (HLM) = details: NPA, read-out: Km literature data; cited from earlier work
[4] = test system: multiple esterases (rabbit cornea); details: NPA, read-out: Km literature data; cited from earlier work
[5] = test system: multiple esterases (pig ocular tissue homogenates); experiment: NPA hydrolysis in pig ocular tissue homogenates; assay type: in vitro ADME; details: for NPA hydrolysis rate: 400 μM NPA
Protocol: (§1) NPA hydrolysis was performed with a slight modification to our previous protocol[22] in clear flat-bottom 96-well Thermo Scientific Sterilin Microtiter plates at 37 °C. Diluted ocular samples (8 μg of protein in 80 μL of PBS) were pipetted into the reaction wells, and the background absorbance was measured at 405 nm for 10 min of preincubation. […] Changes in absorbance at 405 nm were recorded with a Victor^2 Microplate Reader (PerkinElmer Wallac 1420, St.

pig liver CES1 = details: NPA, read-out: Km literature data; cited from earlier work
[6] = test system: multiple esterases (rabbit ocular tissue homogenates); experiment: NPA hydrolysis in rabbit ocular tissue homogenates; assay type: in vitro ADME; details: for NPA hydrolysis rate: 400 μM NPA
Protocol: as §1

[7] = test system: esterases in pig cornea homogenate (NPA hydrolysis); experiment: Inhibition of NPA hydrolysis in pig cornea; assay type: biochemical; details: 0.1 mM NPA; for IC50: for PMSF no unique IC50, concentration giving 50% inhibition, read-out: IC50 (this study), inhibition of NPA hydrolysis
Protocol: as §1, with “St. Paul, MN) for 45 min with 90 s reading intervals. 4-Nitrophenol was used to generate a standard curve (5–400 μM).” for “St.”
(§2) Inhibitors were tested at a final concentration range of 0.4–400 μM except for PMSF (0.3–2.5 mM).
(§3) The differences among hydrolytic activities were analyzed by ANOVA using the SigmaPlot software (Sigma Plot 13.0, Systat Software Inc., San Jose, CA), followed by Mann–Whitney U test for statistical comparisons between species and between tissues. Between species, statistically significant differences are ranked by the asterisk signs (in the order of *, p < 0.05; **, p < 0.01, and *** p < 0.001). Between tissues of the same species, statistically significant differences in comparison to conjunctiva are represented by the dagger sign (†, p < 0.05). Nonlinear regression analysis to determine the Km, Vmax, and IC50 values were done using GraphPad Prism (GraphPad, 5.04 Software Inc., San Diego, CA). For IC50, logarithms of inhibitor concentrations were plotted against the relative response (0 μM inhibitor = 100%).

most esterases = details: cited from earlier work
[8] = test system: CES1 (DME hydrolysis in rabbit cornea and conjunctiva); experiment: Inhibition of DME hydrolysis in rabbit cornea and conjunctiva; assay type: biochemical; details: 5 μM DME, at 200 μM inhibitor
Protocol: (§4) The hydrolysis of DME was monitored with slight modifications using the published bioluminescence-based assay[13],[21] where recombinant firefly luciferase enzyme was used to detect the D-luciferin that formed in the reaction mixture. The DME hydrolysis reaction was done in white-coated 96-well plates (Thermo Scientific Sterilin Microtiter Plates). Tissue lysates (5 μg of protein) were preincubated in 0.1 M PBS, pH 6.5. The reaction was initiated by adding DME to a final concentration of 5 μM in a final volume of 200 μL. The hydrolysis of DME was allowed to proceed for 20 min at 37 °C. The formed D-luciferin was quantitated by an injection of 73 μL of the luciferase detection reagent [3 μg of rLuciferase, 50 nmol of ATP, and 50 nmol of MgCl2 in PBS], and the luminescence was measured immediately with a Victor^2 Microplate Reader (560 nm, 1 s). Serial 2-fold dilutions of D-luciferin in 0.1 M PBS, pH 6.5 were used to generate the standard curve (0.156–10 μM).
as §2
(§5) The differences among hydrolytic activities were analyzed by ANOVA using the SigmaPlot software (Sigma Plot 13.0, Systat Software Inc., San Jose, CA), followed by Mann–Whitney U test for statistical comparisons between species and between tissues. […]

[9] = target: CES1 (DME hydrolysis in pig cornea and conjunctiva) (Sus scrofa, UniProt F1RF16); experiment: Inhibition of DME hydrolysis in pig cornea and conjunctiva; assay type: biochemical; details: 5 μM DME, at 200 μM inhibitor, read-out: Extent of inhibition of DME hydrolysis
CES1 (DME hydrolysis in pig cornea and conjunctiva), sequence (F1RF16 19-530): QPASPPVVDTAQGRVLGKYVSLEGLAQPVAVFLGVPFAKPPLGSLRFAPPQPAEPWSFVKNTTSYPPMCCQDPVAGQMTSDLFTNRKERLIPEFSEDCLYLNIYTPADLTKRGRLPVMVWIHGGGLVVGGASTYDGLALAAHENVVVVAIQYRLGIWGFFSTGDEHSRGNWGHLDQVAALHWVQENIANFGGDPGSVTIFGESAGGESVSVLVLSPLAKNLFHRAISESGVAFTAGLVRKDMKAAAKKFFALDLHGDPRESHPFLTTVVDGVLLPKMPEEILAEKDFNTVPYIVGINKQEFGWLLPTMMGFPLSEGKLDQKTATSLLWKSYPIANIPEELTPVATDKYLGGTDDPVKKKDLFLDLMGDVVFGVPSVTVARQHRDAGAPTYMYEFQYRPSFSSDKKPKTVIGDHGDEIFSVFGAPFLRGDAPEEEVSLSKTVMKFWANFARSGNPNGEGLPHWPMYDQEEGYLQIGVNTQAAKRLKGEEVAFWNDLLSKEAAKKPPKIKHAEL
Protocol: as §4, §2, §5

CES2 > CES1 (HLM) = target: CES2 > CES1 (HLM); set-up: method as in PMID 23648675, PMID 32955894; details: read-out: Ki (literature); cited from earlier work
[10] = test system: AADAC (pig ocular tissue homogenates); experiment: Phenacetin hydrolysis to p-phenetidine in pig ocular tissues; assay type: in vitro ADME; details: 4 mM phenacetin, below detection limit
Protocol: (§6) Phenacetin, a specific substrate for human AADAC,[18],[19],[24] was incubated with ocular tissue homogenates. The substrate (4 mM, final concentration) was preincubated in the 0.1 M Tris-HCl, pH 7.4, buffer at 37 °C for 5 min, after which the tissue samples (20 μg of protein) were added to start the reaction in the total reaction volume of 200 μL. All the reaction and control samples were incubated for 50 min at 37 °C with shaking. The reaction was terminated by adding 200 μL of ice-cold ACN containing acetaminophen at an 1 μM final concentration as the internal standard, followed by centrifugation at 4 °C for 10 min at 10 000g. A standard curve using the metabolite p-phenetidine (0.1–100 μM)[24] was established. The protein amount and incubation time were optimized from earlier pilot experiments for both procaine and phenacetin hydrolysis reactions. All incubations were performed in triplicate including the controls (control with no sample, control with no substrate), and the data are expressed as mean ± SD.
(§7) The metabolites from the above CES2 and AADAC assays were analyzed using a Waters (Milford, MA) Acquity ultra-performance liquid chromatographic (UPLC) coupled with a Q-Exactive Focus Orbitrap MS (Thermo Scientific). […]

[11] = test system: AADAC (rabbit ocular tissue homogenates); experiment: Phenacetin hydrolysis to p-phenetidine in rabbit ocular tissues; assay type: in vitro ADME; details: 4 mM phenacetin, below detection limit
Protocol: as §6, §7

[12] = test system: CES2 (rabbit ocular tissue homogenates); experiment: Procaine hydrolysis to PABA in rabbit ocular tissues; assay type: in vitro ADME; details: 100 μM procaine
Protocol: (§8) Procaine, a known human CES2 substrate,[2],[17],[50] was incubated with rabbit and pig ocular tissues. After preincubation of the substrate (100 μM procaine in 0.1 M Tris-HCl, pH 7.4) at 37 °C, the reaction was initiated with tissue samples (20 μg of protein) in a total reaction volume of 200 μL. All the samples in parallel with the controls (no substrate or no enzyme) were incubated for 50 min at 37 °C on a shaker incubator (Heidolph Titramax 1000 platform shaker, Berlin Germany). The reaction was terminated by adding 200 μL of ice-cold ACN containing the internal standard procainamide (1 μM final concentration), followed by centrifugation at 4 °C for 10 min at 10 000g. Supernatants were collected for HPLC analysis. The standard curve was established using the hydrolysis product PABA with the concentration range 0.1–1000 nM.[51]
(§9) The metabolites from the above CES2 and AADAC assays were analyzed using a Waters (Milford, MA) Acquity ultra-performance liquid chromatographic (UPLC) coupled with a Q-Exactive Focus Orbitrap MS (Thermo Scientific). A Waters HSS T3 column (2.1 mm × 100 mm, 1.8 μm particle size) was used with elution gradients A (0.1% formic acid) and B (methanol) [0–0.5 min, 1% B; 0.5–4 min, 1%–20% B; 4–4.5 min, 20%–98% B; 4.5–5 min, 98% B; and 5–6 min, 98%–1% B]. The injection volume was 2 μL with a flow rate of 0.5 mL/min and a column temperature of 40 °C. […]

[13] = test system: CES2 (pig ocular tissue homogenates); experiment: Procaine hydrolysis to PABA in pig ocular tissues; assay type: in vitro ADME; details: 100 μM procaine
Protocol: as §8, §9

rhCES2 = details: cited from earlier work
[14] = test system: CES2 (FDA hydrolysis in pig retina); experiment: Inhibition of FDA hydrolysis in pig retina; assay type: biochemical; details: 10 μM FDA
Protocol: Diluted samples (5 μg of protein) were incubated at 37 °C in black 96-well Thermo Scientific Nunc F96 MicroWell plates. […] The fluorescein stock solution was used to generate a standard curve (0.156–10 μM) using 2-fold serial dilutions in 0.1 M PBS, pH 7.4.
as §2, §3

SMILES: O=C(O)CN(CCN(CC(=O)O)CC(=O)O)CC(=O)O [EDTA]
- Inhibition of naphthyl acetate hydrolysis [1]: 10%–30%

SMILES: CC(=O)Oc1ccc2c(c1)Oc1cc(OC(C)=O)ccc1C21OC(=O)c2ccccc21 [FDA, fluorescein diacetate]
- FDA hydrolysis rate ([2]; rabbit RPE, aqueous humor and vitreous): 0.1 to 0.2 nmol/min/mg
- FDA hydrolysis rate ([2]; rabbit choroid, cornea and conjunctiva): > 1.0 nmol/min/mg
- FDA hydrolysis rate ([2]; rabbit retina): 0.5 to 1 nmol/min/mg
- Km ([2]; read-out: Km (this study), FDA hydrolysis in rabbit cornea): 5.5 ± 0.4 µM
- FDA hydrolysis rate ([3]; most pig ocular tissues (except retina)): < 0.1 nmol/min/mg
- FDA hydrolysis rate ([3]; pig retina): 0.6 ± 0.1 nmol/min/mg
- Km ([3]; read-out: Km (this study), FDA hydrolysis in pig retina): 16 ± 1.6 µM

SMILES: CC(=O)Oc1ccc([N+](=O)[O-])cc1 [NPA, 4-Nitrophenyl acetate]
- Km (multiple esterases (HLM)): 198 ± 17 µM
- Km [4]: 68 ± 15 µM
- Km ([5]; NPA hydrolysis in pig cornea, read-out: Km (this study)): 125 ± 13 µM
- NPA hydrolysis rate ([5]; pig RPE): 8.4 ± 1.0 nmol/min/mg
- NPA hydrolysis rate ([5]; pig, all ocular tissues except RPE): around 20 nmol/min/mg
- Km (pig liver CES1): 520 ± 60 µM
- Km ([6]; NPA hydrolysis in rabbit cornea, read-out: Km (this study)): 263 ± 15 µM
- NPA hydrolysis rate ([6]; rabbit RPE): 17.5 ± 2.7 nmol/min/mg
- NPA hydrolysis rate ([6]; rabbit choroid): 81.6 ± 6.8 nmol/min/mg
- NPA hydrolysis rate ([6]; rabbit, most ocular tissue homogenates, 37 °C): 30–45 nmol/min/mg protein

SMILES: O=S(=O)(F)Cc1ccccc1 [PMSF, phenylmethylsulfonyl fluoride]
- IC50 [7]: 200 µM and ~200 µM
- IC50 (most esterases; most esterases, read-out: IC50 (literature)): 541 µM
- Ki (most esterases; most esterases, read-out: Ki (literature)): 560 µM
- IC50 (most esterases; other tissues, read-out: reported IC50 value in other tissues): ~500 µM

SMILES: C[C@@H]1CC[C@@]2(OC1)O[C@H]1[C@@H](O)[C@H]3[C@@H]4CC[C@H]5C[C@@H](O[C@@H]6O[C@H](CO)[C@H](O[C@@H]7O[C@H](CO)[C@@H](O)[C@H](O[C@@H]8OC[C@@H](O)[C@H](O)[C@H]8O)[C@H]7O[C@@H]7O[C@H](CO)[C@H](O)[C@H](O[C@@H]8O[C@H](CO)[C@@H](O)[C@H](O)[C@H]8O)[C@H]7O)[C@H](O)[C@H]6O)[C@H](O)C[C@]5(C)[C@H]4CC[C@]3(C)[C@H]1[C@@H]2C [digitonin]
- IC50 [7]: 38 µM
- Extent of inhibition of NPA hydrolysis (maximal) ([7]; highest inhibitor concentration 400 μM (PMSF 2.5 mM)): ~40%
- Extent of inhibition of DME hydrolysis [8]: 30%
- inhibition at 200 µM [9]: 15%

SMILES: COc1ccc([C@@H]2Sc3ccccc3N(CCN(C)C)C(=O)[C@@H]2OC(C)=O)cc1 [diltiazem]
- Ki (CES2 > CES1 (HLM)): 2.89 ± 0.39 µM

SMILES: O=C(O)c1cc[c]([Hg][Cl])cc1 [p-chloromercuribenzoate]
- Inhibition of naphthyl acetate hydrolysis [1]: 10%–30%

SMILES: CCOc1ccc(NC(C)=O)cc1 [phenacetin]
- Phenacetin hydrolysis rate (p-phenetidine formation) [10]: undetectable
- Phenacetin hydrolysis rate (p-phenetidine formation) ([10]; listed as Phenacetin): < 0.1 pmol/min/mg
- Phenacetin hydrolysis rate (p-phenetidine formation) [11]: undetectable
- Phenacetin hydrolysis rate (p-phenetidine formation) ([11]; listed as Phenacetin): < 0.1 pmol/min/mg

SMILES: CCN(CC)CCOC(=O)c1ccc(N)cc1 [procaine]
- Procaine hydrolysis rate (PABA formation) ([12]; rabbit aqueous humor and conjunctiva): 0.04 to 0.1 nmol/min/mg
- Procaine hydrolysis rate (PABA formation) ([12]; rabbit cornea, vitreous, RPE and choroid): 0.2 to 0.3 nmol/min/mg
- Procaine hydrolysis rate (PABA formation) ([13]; pig aqueous humor (lowest)): 0.02 nmol/min/mg
- Procaine hydrolysis rate (PABA formation) ([13]; pig retina (highest)): 0.09 nmol/min/mg

SMILES: CC(C)(C)NC[C@H](O)COc1nsnc1N1CCOCC1 [timolol]
- inhibition (literature, printed in IC50 column) (rhCES2; main human enzyme CES2, at 200 μM): 20% inhibition at 200 μM
- Extent of inhibition of FDA hydrolysis [14]: no inhibition

SMILES: COc1ccc(CCN(C)CCCC(C#N)(c2ccc(OC)c(OC)c2)C(C)C)cc1OC (stereo not drawn) [verapamil]
- IC50 (rhCES2; rhCES2, read-out: IC50 (literature)): 7.94 µM
- Ki (rhCES2; rhCES2, read-out: Ki (literature)): 3.84 ± 0.99 µM
- Ki (CES2 > CES1 (HLM)): 11.5 ± 1.2 µM
- Extent of inhibition of FDA hydrolysis [14]: no inhibition
